Assay results taken from patent US20190282640A1 (priority 2016, published 2019).

Target: C5 (Homo sapiens, UniProt P01031)
Type: cell-based

C5, sequence (P01031 678-1676): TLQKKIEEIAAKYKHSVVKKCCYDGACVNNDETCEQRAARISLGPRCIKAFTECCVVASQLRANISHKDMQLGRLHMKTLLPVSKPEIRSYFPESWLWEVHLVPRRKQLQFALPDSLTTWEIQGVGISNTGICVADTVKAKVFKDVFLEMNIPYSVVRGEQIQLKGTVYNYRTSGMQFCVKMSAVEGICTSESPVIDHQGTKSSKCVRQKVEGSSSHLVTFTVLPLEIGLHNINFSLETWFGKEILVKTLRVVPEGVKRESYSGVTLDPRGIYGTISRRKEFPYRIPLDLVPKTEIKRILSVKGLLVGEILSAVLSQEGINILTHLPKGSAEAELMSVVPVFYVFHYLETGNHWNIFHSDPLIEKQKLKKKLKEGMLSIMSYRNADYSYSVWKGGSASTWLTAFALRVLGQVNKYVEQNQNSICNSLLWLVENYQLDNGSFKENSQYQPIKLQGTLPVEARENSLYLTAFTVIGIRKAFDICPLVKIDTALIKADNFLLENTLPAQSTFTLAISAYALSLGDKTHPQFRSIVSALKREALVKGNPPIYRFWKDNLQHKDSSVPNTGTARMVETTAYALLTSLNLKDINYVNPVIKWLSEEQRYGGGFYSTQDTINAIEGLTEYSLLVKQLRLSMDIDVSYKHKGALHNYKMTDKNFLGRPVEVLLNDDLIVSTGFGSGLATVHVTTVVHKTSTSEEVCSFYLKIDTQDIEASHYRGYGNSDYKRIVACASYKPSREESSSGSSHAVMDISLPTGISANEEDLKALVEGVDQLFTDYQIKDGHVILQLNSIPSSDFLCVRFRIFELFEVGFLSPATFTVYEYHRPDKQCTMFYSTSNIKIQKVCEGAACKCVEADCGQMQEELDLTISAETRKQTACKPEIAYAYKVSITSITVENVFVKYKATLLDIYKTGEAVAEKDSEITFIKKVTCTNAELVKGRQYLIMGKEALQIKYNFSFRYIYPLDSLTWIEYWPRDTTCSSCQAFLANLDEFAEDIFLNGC
C5, sequence (P01031 19-673): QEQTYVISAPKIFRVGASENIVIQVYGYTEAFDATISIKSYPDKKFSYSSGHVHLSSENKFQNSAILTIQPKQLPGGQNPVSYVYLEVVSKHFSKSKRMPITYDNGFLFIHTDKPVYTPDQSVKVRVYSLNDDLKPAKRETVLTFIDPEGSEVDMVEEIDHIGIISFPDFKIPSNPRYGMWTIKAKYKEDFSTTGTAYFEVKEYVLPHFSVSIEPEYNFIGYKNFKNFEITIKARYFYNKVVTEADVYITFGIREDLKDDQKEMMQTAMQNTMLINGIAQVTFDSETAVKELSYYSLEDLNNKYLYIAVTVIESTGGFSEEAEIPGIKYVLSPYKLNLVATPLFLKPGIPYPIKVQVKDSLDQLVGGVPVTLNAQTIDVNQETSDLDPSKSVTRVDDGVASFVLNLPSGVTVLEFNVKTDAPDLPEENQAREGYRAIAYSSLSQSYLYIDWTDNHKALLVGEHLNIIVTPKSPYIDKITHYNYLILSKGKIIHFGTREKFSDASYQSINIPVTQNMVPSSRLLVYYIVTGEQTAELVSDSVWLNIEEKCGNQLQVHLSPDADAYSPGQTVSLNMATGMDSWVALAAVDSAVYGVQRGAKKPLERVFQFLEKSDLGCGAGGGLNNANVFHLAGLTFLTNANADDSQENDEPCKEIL

Eculizumab
effect of C5 inhibition on MRB LCMV G neutralization: able to prevent viral neutralization
